US6569446B1, “Solubilization of flavonols” (The Howard Foundation, priority 1996, dated 2003)
Converted amounts (≈) assume the structure as drawn.

How the values were obtained:
[1] = Solubilization of quercetin, quercitrin and rutin by heat in water, grape anthocyanin and malvin chloride solutions (Example 6); format: physicochemical; settings: thermodynamic from solid
Method: Quercetin is a flavonol aglycone. In fruit juices it exists as the glycoside. The purpose of the investigation was to examine the solubilization of glycosides of flavonols by anthocyanins. […] Samples were diluted in water 1:9 before reading. Aliquots of anthocyanin and water with and without the flavonol were treated similarly.
The same procedure was used for measuring the solubility of the flavonols in malvin chloride. In this case 1.8 mg malvin chloride was dissolved in 2.0 ml citrate buffer at pH3. To 1 ml was added 2 mg of the flavonol, the other 1 ml acted as a control. After heating, the mixture was cooled to room temperature, centrifuged, and the supernatant diluted 1:9 with 50% aqueous ethanol. The optical densities were measured at 375 nm.

physchem = format: physicochemical; settings: 20 °C, aqueous with cosolvent or surfactant or cyclodextrin, kinetic from dmso stock
Method: The procedure used was as follows: anthocyanin powder was dissolved in deionised water to give concentrations of 0.625, 1.25, 2.5, 10 and 20 mg/ml. […] The mixtures were allowed to stand for 20 to 30 min and then centrifuged at 2000×g for 30 min at 20° C. The optical densities were measured at 258 nm and 375 nm as in Example 1. To 5 ml of each corresponding anthocyanin solution was added the same volume of ethanol determined above to give a precipitate, and the optical densities measured. […] The control was water.
Since quercitin is more soluble in aqueous ethanol than water a further series of controls were prepared in which quercetin in ethanol was added to water in amounts corresponding to those used in the test, and the solubilities likewise determined. […] To solubilize quercetin more anthocyanin was needed than quercetin w/w.

[2] = Solubility of solid quercetin in liquids after heating to boiling in microwave oven (Example 3); format: physicochemical; settings: 20 °C, thermodynamic from solid
Method: To investigate dissolution by heat, the liquids were heated in a sealed tube for 1 min in a microwave oven (when boiling of the liquid occurred) and cooled to room temperature.

[3] = ileostomy subjects (Hollman et al 1995); cited from earlier work
[4] = Solubilization of quercetin in aqueous malvin chloride by addition of ethanol solution of quercetin (Example 5); format: physicochemical
Method: The anthocyanins can be divided into two major classes: the monomeric anthocyanins and the polymeric anthocyanins. A typical example of a monomeric anthocyanin is malvin chloride, a salt of the oxonium ion malvidin-3-glucose and the chloride ion. It can be obtained in a high state of purity (Indofine Inc, USA) and therefore used to determine the solubilizing effect of an anthocyanin monomer. The procedure was as follows: malvin chloride (2.2 mg) was dissolved in 2 ml citrate buffer (pH 3.0)—one ml acted as a control. […] Equal amounts of ethanol were added to the control. Each solution was diluted (1:9) with 5% aqueous ethanol and the optical density determined at 275 nm.

[5] = Solubility of solid quercetin mixed with liquids at room temperature (Example 3); format: physicochemical; settings: 20 °C, thermodynamic from solid, Room temp
[6] = aqueous with cosolvent or surfactant or cyclodextrin
[7] = pH 3, aqueous with cosolvent or surfactant or cyclodextrin

Structure (SMILES) | solubility at 1 min [1, 6] [µg/mL] | solubility at 1 min [1, 7] [µg/mL] | solubility at 1 min ([1]; water) [µg/mL] | solubility (physchem) [µg/mL] | solubility (physchem; Solubility of quercetin, 20 mg grape anthocyanin powder/ml, in a 22% ethanol solution) [µg/mL] | solubility at 1 min ([2]; aqueous with cosolvent or surfactant or cyclodextrin, Boiling, Rosé D'Anjou (F)) [µg/mL] | solubility at 1 min ([2]; water, Solubility of quercetin) [µg/mL] | absorption [3] [%] | solubility ([4]; 20% v/v ethanol, aqueous with cosolvent or surfactant or cyclodextrin, ethanol 20% v/v, without malvin chloride) [µg/mL] | Solubility of quercetin in presence of malvin chloride ([4]; citrate buffer pH 3.0, 20% v/v ethanol, possibly super saturated) | quercetin added to 1 ml malvin chloride with no precipitate ([4]; malvin chloride 1.1 mg/ml in citrate buffer pH 3.0, quercetin added in ethanol, slight precipitate at 1000 μg) [µg] | solubility at 3 h ([5]; aqueous with cosolvent or surfactant or cyclodextrin, Ethanol 12% v/v) [µg/mL] | solubility at 3 h ([5]; aqueous with cosolvent or surfactant or cyclodextrin, Red wine Cabernet-Sauvignon (F)) [µg/mL] | solubility at 3 h ([5]; aqueous with cosolvent or surfactant or cyclodextrin, grape Anthocyanin powder 1 g/L in water) [µg/mL] | solubility at 3 h ([5]; Water, OD 375 nm) [µg/mL]
C[C@@H]1O[C@@H](Oc2c(-c3ccc(O)c(O)c3)oc3cc(O)cc(O)c3c2=O)[C@H](O)[C@H](O)[C@H]1O [Quercitrin, quercetin 3-L-rhamnoside] | 316 (≈ 705 µM) | 127 (≈ 283 µM) | 53 (≈ 118 µM) | – | – | – | – | – | – | – | – | – | – | – | –
C[C@@H]1O[C@@H](OC[C@H]2O[C@@H](Oc3c(-c4ccc(O)c(O)c4)oc4cc(O)cc(O)c4c3=O)[C@H](O)[C@@H](O)[C@@H]2O)[C@H](O)[C@H](O)[C@H]1O [Rutin, quercetin 3β-D-rutinoside hydrate] | 260 | 74 | 36 | – | – | – | – | – | – | – | – | – | – | – | –
O=c1c(O)c(-c2ccc(O)c(O)c2)oc2cc(O)cc(O)c12 [quercetin] | 90 (≈ 298 µM) | 28 (≈ 92.6 µM) | 2 (≈ 6.62 µM) | 13 (≈ 43 µM) | 75 (≈ 248 µM) | 9 (≈ 29.8 µM) | 2 (≈ 6.62 µM) | 25 | 13 (≈ 43 µM) | extremely soluble | 750 | 1 (≈ 3.31 µM) | 3 (≈ 9.93 µM) | 0.7 (≈ 2.32 µM) | 0.3 (≈ 0.993 µM)
